ChEMBL document CHEMBL1149589, “The influence of the long chain fatty acid on the antagonistic activities of Rhizobium sin-1 lipid A” (Bioorg Med Chem, 2007)
The source made the active and inactive calls. No cut-off for these calls is given here.

Test system: MONO-MAC-6
Test: Antagonistic activity against Escherichia coli LPS-induced TNFalpha production in human Mono Mac 6 cells after 5.5 hrs
Assay type: functional, cell-based
Settings: for IC50: Homo sapiens, MONO-MAC-6, 5.5 h

| IC50 [µM] | Structure (SMILES) | Activity | Inhibition [%] |
| --- | --- | --- | --- |
|  | CCCCCCCCCCCCCC(=O)O[C@H](CCCCCCCCCCCCC)CC(=O)N[C@H]1[C@H](OC[C@H]2OC(=O)[C@H](NC(=O)C[C@H](O)CCCCCCCCCCCCC)[C@@H](OC(=O)C[C@H](O)CCCCCCCCCCCCC)[C@@H]2O)O[C@H](CO)[C@@H](O)[C@@H]1OC(=O)C[C@H](O)CCCCCCCCCCCCC | Active |  |
| 7.5 | CCCCCCCCCCCCCCCCCCCCCCCCCCCC(=O)O[C@H](CCCCCCCCCCCCC)CC(=O)N[C@H]1[C@H](OC[C@H]2OC(=O)[C@H](NC(=O)C[C@H](O)CCCCCCCCCCCCC)[C@@H](OC(=O)C[C@H](O)CCCCCCCCCCCCC)[C@@H]2O)O[C@H](CO)[C@@H](O)[C@@H]1OC(=O)C[C@H](O)CCCCCCCCCCCCC |  |  |
| 9.1 | CCCCCCCCCCCCC[C@@H](O)CC(=O)N[C@H]1C(=O)O[C@H](CO[C@@H]2O[C@H](CO)[C@@H](O)[C@H](OC(=O)C[C@H](O)CCCCCCCCCCCCC)[C@H]2NC(=O)C[C@@H](CCCCCCCCCCCCC)OC(=O)CCCCCCCCCCCCCCCCCCCCCCCCCC(C)O)[C@@H](O)[C@@H]1OC(=O)C[C@H](O)CCCCCCCCCCCCC (some centres undefined) |  | 86 |
